This assay has as its target EGFR WT (Homo sapiens (Human), UniProt P00533). The experiment in a line: ErbB enzyme assay (CisBio HTRF-KinEASE-TK), EGFR WT. Type of assay: biochemical. The note with it: ATP at Km (25 μM), 1 h incubation. Put shortly:
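Compounds, serially diluted three-fold, were incubated with enzyme for 1 h at ambient temperature. Detection reagents were then added for a further hour, and the 655/620 nm HTRF ratio was normalised to uninhibited and pre-quenched controls. IC50 was fitted with a four-parameter logistic model.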

Where only a bound is given, the exact number is not on record here.

Sequence of EGFR WT (P00533 25-1210): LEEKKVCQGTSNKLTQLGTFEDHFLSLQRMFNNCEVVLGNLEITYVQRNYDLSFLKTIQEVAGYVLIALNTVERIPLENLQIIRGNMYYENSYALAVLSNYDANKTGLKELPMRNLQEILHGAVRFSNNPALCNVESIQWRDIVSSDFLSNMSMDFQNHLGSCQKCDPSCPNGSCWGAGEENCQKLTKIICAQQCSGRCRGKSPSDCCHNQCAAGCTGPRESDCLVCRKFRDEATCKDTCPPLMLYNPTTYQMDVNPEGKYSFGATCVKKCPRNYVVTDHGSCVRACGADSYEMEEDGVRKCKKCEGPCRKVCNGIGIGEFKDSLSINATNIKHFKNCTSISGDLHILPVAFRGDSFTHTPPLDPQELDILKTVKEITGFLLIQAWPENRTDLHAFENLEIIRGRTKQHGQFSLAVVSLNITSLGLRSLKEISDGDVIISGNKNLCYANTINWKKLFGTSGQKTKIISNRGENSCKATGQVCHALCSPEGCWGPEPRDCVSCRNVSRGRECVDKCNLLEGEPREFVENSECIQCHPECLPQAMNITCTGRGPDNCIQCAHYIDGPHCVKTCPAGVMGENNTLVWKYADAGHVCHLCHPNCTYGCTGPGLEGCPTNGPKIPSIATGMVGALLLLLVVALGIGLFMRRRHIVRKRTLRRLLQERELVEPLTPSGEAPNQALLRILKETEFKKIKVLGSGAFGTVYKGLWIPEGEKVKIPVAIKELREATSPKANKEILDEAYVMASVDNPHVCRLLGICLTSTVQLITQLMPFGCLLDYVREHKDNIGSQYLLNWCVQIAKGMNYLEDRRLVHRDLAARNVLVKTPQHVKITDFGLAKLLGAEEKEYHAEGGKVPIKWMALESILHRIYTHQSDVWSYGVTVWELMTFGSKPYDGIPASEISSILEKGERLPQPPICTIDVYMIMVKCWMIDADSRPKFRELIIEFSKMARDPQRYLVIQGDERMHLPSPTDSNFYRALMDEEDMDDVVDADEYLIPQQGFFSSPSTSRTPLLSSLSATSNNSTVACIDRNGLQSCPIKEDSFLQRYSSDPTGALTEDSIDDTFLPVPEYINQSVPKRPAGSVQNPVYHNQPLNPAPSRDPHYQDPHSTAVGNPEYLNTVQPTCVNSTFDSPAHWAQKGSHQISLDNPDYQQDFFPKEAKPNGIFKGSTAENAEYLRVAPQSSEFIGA

`C=CC(=O)N[C@H]1CN(c2ncc3ncnc(Nc4ccc(Oc5ccc6c(c5)nnn6C)c(C)c4F)c3n2)CC[C@@H]1C` [Compound 229, N-((3R,4S)-1-(8-((2-fluoro-3-methyl-4-((1-methyl-1H-benzo[d][1,2,3]triazol-5-yl)oxy)phenyl)amino)pyrimido[5,4-d]pyrimidin-2-yl)-4-methylpiperidin-3-yl)acrylamide] had an IC50 of 100 to 500 nM.

`C=CC(=O)N1CCN(c2ccc3ncnc(Nc4ccc(Oc5ccc6c(c5)nnn6C)c(C)c4)c3n2)C[C@H]1CC#N` [Compound 84, (R)-2-(1-acryloyl-4-(4-((3-methyl-4-((1-methyl-H-benzo[d][1,2,3]triazol-5-yl)oxy)phenyl)amino)pyrido[3,2-d]pyrimidin-6-yl)piperazin-2-yl)acetonitrile] yielded an IC50 of less than 50 nM.

With `C=CC(=O)N1C(C)(C)CC(c2ccc3ncnc(Nc4ccc(Oc5ccc6c(c5)nnn6C)c(C)c4)c3n2)CC1(C)C` [Compound 399, 1-(2,2,6,6-tetramethyl-4-(4-((3-methyl-4-((1-methyl-1H-benzo[d][1,2,3]triazol-5-yl)oxy)phenyl)amino)pyrido[3,2-d]pyrimidin-6-yl)piperidin-1-yl)prop-2-en-1-one], the IC50 was not below 1000 nM.

Consider `C=C1CCN(C2CCN(c3ccc4ncnc(Nc5ccc(Oc6ccc7c(c6)nnn7C)c(C)c5F)c4n3)CC2)C1=O` [Compound 241, 1-(1-(4-((2-fluoro-3-methyl-4-((1-methyl-1H-benzo[d][1,2,3]triazol-5-yl)oxy)phenyl)amino)pyrido[3,2-d]pyrimidin-6-yl)piperidin-4-yl)-3-methylenepyrrolidin-2-one], for which the IC50 is not below 1000 nM.

Regarding `Cc1cc(Nc2ncnc3ccc(N4CCN(C(=O)/C=C/CF)[C@H](C)C4)nc23)ccc1Oc1ccc2c(c1)nnn2C` [Compound 364, (R,E)-4-fluoro-1-(2-methyl-4-(4-((3-methyl-4-((1-methyl-1H-benzo[d][1,2,3]triazol-5-yl)oxy)phenyl)amino)pyrido[3,2-d]pyrimidin-6-yl)piperazin-1-yl)but-2-en-1-one], the IC50 lay within 100 to 500 nM.

`C=CC(=O)N1CCN(c2ccc3ncnc(Nc4ccc(Oc5cnc6ccnn6c5)c(C)c4)c3n2)CC1` [Compound 319, 1-(4-(4-((3-methyl-4-(pyrazolo[1,5-a]pyrimidin-6-yloxy)phenyl)amino)pyrido[3,2-d]pyrimidin-6-yl)piperazin-1-yl)prop-2-en-1-one] displayed an IC50 of less than 50 nM.

The compound `C=CC(=O)N1CCN(c2ncc3ncnc(Nc4ccc(Oc5cc(F)c6c(c5)ncn6C)c(C)c4F)c3n2)CC[C@@H]1C` [Compound 181, (S)-1-(4-(8-((2-fluoro-4-((7-fluoro-1-methyl-1H-benzo[d]imidazol-5-yl)oxy)-3-methylphenyl)amino)pyrimido[5,4-d]pyrimidin-2-y1)-7-methyl-1,4-diazepan-1-yl)prop-2-en-1-one] yielded an IC50 of less than 50 nM.

`C=CC(=O)N1CCN(c2ncc3ncnc(Nc4ccc(Oc5cc(F)c6c(c5)ncn6C)c(C)c4)c3n2)CC[C@@H]1C` [Compound 179, (S)-1-(4-(8-((4-((7-fluoro-1-methyl-1H-benzo[d]imidazol-5-yl)oxy)-3-methylphenyl)amino)pyrimido[5,4-d]pyrimidin-2-y1)-7-methyl-1,4-diazepan-1-yl)prop-2-en-1-one] had an IC50 of 100 to 500 nM.

`C=CC(=O)N1CCN(c2ncc3ncnc(Nc4cc(C)c(Oc5cc(F)c6c(c5)ncn6C)cc4OC)c3n2)C[C@H]1C` [Compound 41, (R)-1-(4-(8-((4-((7-fluoro-1-methyl-1H-benzo[d]imidazol-5-yl)oxy)-2-methoxy-5-methylphenyl)amino)pyrimido[5,4-d]pyrimidin-2-y1)-2-methylpiperazin-1-y1)prop-2-en-1-one] yielded an IC50 of 100 to 500 nM.

`C=CC(=O)N1CC2CCC(C1)N2c1ncc2ncnc(Nc3ccc(Oc4ccc5c(c4)nnn5C)c(C)c3)c2n1` [Compound 46, 1-(8-(8-((3-methyl-4-((1-methyl-1H-benzo[d][1,2,3]triazol-5-yl)oxy)phenyl)amino)pyrimido[5,4-d]pyrimidin-2-yl)-3,8-diazabicyclo[3.2.1]octan-3-yl)prop-2-en-1-one] displayed an IC50 of less than 50 nM.

Consider `C=CC(=O)N1CCN(c2ccc3ncnc(Nc4cc(C)c(Oc5ccc6c(c5)nnn6C)cc4OC(F)F)c3n2)CC1(C)C` [Compound 305, 1-(4-(4-((2-(difluoromethoxy)-5-methyl-4-((1-methyl-1H-benzo[d][1,2,3]triazol-5-yl)oxy)phenyl)amino)pyrido[3,2-d]pyrimidin-6-yl)-2,2-dimethylpiperazin-1-yl)prop-2-en-1-one], for which the IC50 lay in the range of 100 to 500 nM.

Consider `C=CC(=O)N1CCN(c2ncc3ncnc(Nc4ccc(Oc5cnn6ccnc6c5)c(C)c4)c3n2)CC1` [Compound 234, 1-(4-(8-((4-(imidazo[1,2-b]pyridazin-7-yloxy)-3-methylphenyl)amino)pyrimido[5,4-d]pyrimidin-2-yl)piperazin-1-yl)prop-2-en-1-one], for which the IC50 is less than 50 nM.

`C=CC(=O)N1CCN(c2ccc3ncnc(Nc4ccc(Oc5cc(F)c6c(c5)nnn6C)c(C)c4)c3n2)C[C@H]1C` [Compound 254, (R)-1-(4-(4-((4-((7-fluoro-1-methyl-1H-benzo[d][1,2,3]triazol-5-yl)oxy)-3-methylphenyl)amino)pyrido[3,2-d]pyrimidin-6-yl)-2-methylpiperazin-1-yl)prop-2-en-1-one] came in with a 50% inhibitory concentration (IC50) of 50 to 100 nM.

`C=CC(=O)N1CCN(c2ccc3ncnc(Nc4ccc(Oc5ccc6c(c5)nnn6C)c(C)c4)c3n2)C[C@@H]1COC` [Compound 78, (R)-1-(2-(methoxymethyl)-4-(4-((3-methyl-4-((1-methyl-1H-benzo[d][1,2,3]triazol-5-yl)oxy)phenyl)amino)pyrido[3,2-d]pyrimidin-6-yl)piperazin-1-yl)prop-2-en-1-one] yielded an IC50 of 100 to 500 nM.

Compound `C=CC(=O)NC1CC(N(C)c2ncc3ncnc(Nc4ccc(Oc5ccc6c(c5)nnn6C)c(C)c4)c3n2)C1` (stereo not drawn) [Compound 142, N-(3-(methyl(8-((3-methyl-4-((1-methyl-1H-benzo[d][1,2,3]triazol-5-yl)oxy)phenyl)amino)pyrimido [5,4-d]pyrimidin-2-yl)amino)cyclobutyl)acrylamide] registered an IC50 of 100 to 500 nM.

The compound `C=CC(=O)N1[C@H](C)CN(c2ncc3ncnc(Nc4ccc(Oc5ccc6c(c5)nnn6C)c(C)c4)c3n2)C[C@H]1C` [Compound 183, 1-((2R,6R)-2,6-dimethyl-4-(8-((3-methyl-4-((1-methyl-1H-benzo[d][1,2,3]triazol-5-yl)oxy)phenyl)amino)pyrimido[5,4-d]pyrimidin-2-yl)piperazin-1-yl)prop-2-en-1-one] registered an IC50 not below 1000 nM.

`C=CC(=O)N1CCN(c2ccc3ncnc(Nc4cc(C)c(Oc5ccn6ncnc6c5)cc4OC)c3n2)CC1` [Compound 371, 1-(4-(4-((4-([1,2,4]triazolo[1,5-a]pyridin-7-yloxy)-2-methoxy-5-methylphenyl)amino)pyrido[3,2-d]pyrimidin-6-yl)piperazin-1-yl)prop-2-en-1-one] gave an IC50 of 50 to 100 nM.

As for `C=CC(=O)N1CCN(c2ccc3ncnc(Nc4cc(C)c(Oc5ccc6c(c5)nnn6C)c(F)c4)c3n2)C[C@H]1C` [Compound 255, (R)-1-(4-(4-((3-fluoro-5-methyl-4-((1-methyl-1H-benzo[d][1,2,3]triazol-5-yl)oxy)phenyl)amino)pyrido[3,2-d]pyrimidin-6-yl)-2-methylpiperazin-1-yl)prop-2-en-1-one], the IC50 was 50 to 100 nM.

In turn, `C=CC(=O)N1CCN(c2ccc3ncnc(Nc4ccc(Oc5cnc6c(c5)ncn6C(F)F)c(C)c4)c3n2)C[C@H]1C` [Compound 249, (R)-1-(4-(4-((4-((3-(difluoromethyl)-3H-imidazo[4,5-b]pyridin-6-yl)oxy)-3-methylphenyl)amino)pyrido[3,2-d]pyrimidin-6-yl)-2-methylpiperazin-1-yl)prop-2-en-1-one] returned an IC50 of less than 50 nM.

With `C=CC(=O)N1CCC(Oc2ncc3ncnc(Nc4ccc(Oc5cc(F)c6c(c5)nnn6C)c(C)c4)c3n2)CC1` [Compound 106, 1-(4-((8-((4-((7-fluoro-1-methyl-1H-benzo[d][1,2,3]triazol-5-yl)oxy)-3-methylphenyl)amino)pyrimido[5,4-d]pyrimidin-2-yl)oxy)piperidin-1-yl)prop-2-en-1-one], the IC50 is less than 50 nM.

Compound `C=C(F)C(=O)N1CC=C(c2ccc3ncnc(Nc4ccc(Oc5ccc6c(c5)nnn6C)c(C)c4)c3n2)C1` [Compound 403, 2-fluoro-1-(3-(4-((3-methyl-4-((1-methyl-1H-benzo[d][1,2,3]triazol-5-yl)oxy)phenyl)amino)pyrido[3,2-d]pyrimidin-6-yl)-2,5-dihydro-1H-pyrrol-1-yl)prop-2-en-1-one] yielded an IC50 of 50 to 100 nM.

The compound `C=CC(=O)N[C@@H]1CN(c2ccc3ncnc(Nc4ccc(Oc5ccc6c(c5)nnn6C)c(C)c4F)c3n2)CC[C@H]1C` [Compound 309, N-((3S,4R)-1-(4-((2-fluoro-3-methyl-4-((1-methyl-1H-benzo[d][1,2,3]triazol-5-yl)oxy)phenyl)amino)pyrido[3,2-d]pyrimidin-6-yl)-4-methylpiperidin-3-y1)acrylamide] came in with a 50% inhibitory concentration (IC50) of 100 to 500 nM.

Regarding `C=CC(=O)N1CCN(c2ccc3ncnc(Nc4c(OC)cc(Oc5cc(F)c6c(c5)ncn6C)c(C)c4F)c3n2)C[C@H]1C` [Compound 257, (R)-1-(4-(4-((2-fluoro-4-((7-fluoro-1-methyl-1H-benzo[d]imidazol-5-yl)oxy)-6-methoxy-3-methylphenyl)amino)pyrido[3,2-d]pyrimidin-6-yl)-2-methylpiperazin-1-yl)prop-2-en-1-one], the IC50 was less than 50 nM.

As to `C=CC(=O)N1CC2CCC1CN2c1ccc2ncnc(Nc3ccc(Oc4ccc5c(c4)nnn5C)c(C)c3)c2n1` (stereo not drawn) [Compound 82, 1-(5-(4-((3-methyl-4-((1-methyl-1H-benzo[d][1,2,3]triazol-5-yl)oxy)phenyl)amino)pyrido[3,2-d]pyrimidin-6-yl)-2,5-diazabicyclo[2.2.2]octan-2-yl)prop-2-en-1-one], the IC50 is less than 50 nM.

For the origin of these results see patent publication US20250129078A1, “ERBB2 INHIBITORS” (Cogent Biosciences, Inc., priority 2023, published 2025).
